This is an account of results in patent US9206124B2, “Treatment of drug-resistant cancer with 2-aryl-2-(3-indolyl) acetohydroxamates” (New Mexico Technical Research Foundation, priority 2013, dated 2015).

Entries after “also recorded” stand apart in the source; their conditions may differ. Where only a bound is given, the exact number is not on record here.

Assay [1] concerns Hs683 anaplastic oligodendroglioma cells. The experiment in a line: MTT antiproliferative assay, Hs683. The class given is cell-based. Conditions: Homo sapiens, Hs 683, 48 h treatment, ± SD, apoptosis-sensitive reference, read-out: GI50 in vitro, Hs683. As to the method:
(§1) As part of the ongoing efforts aimed at identification of compounds active against cancer cells displaying resistance to proapoptotic agents, the selected 2-aryl-2-(3-indolyl)-acetohydroxamates were evaluated for in vitro growth inhibition against a panel of additional cancer cell lines including those resistant to various proapoptotic stimuli, such as human T98G and U87 glioblastoma and human A549 non-small-cell-lung cancer (NSCLC), as well as an apoptosis-sensitive tumor model, such as human Hs683 anaplastic oligodendroglioma, used as a reference. The data reveal that for the most part these compounds retain the single-digit antiproliferatve GI50 values in this challenging cancer cell panel.
(§2) Human cancer cell lines were obtained from the American Type Culture Collection (ATCC, Manassas, Va., USA), the European Collection of Cell Culture (ECACC, Salisbury, UK) and the Deutsche Sammlung von Mikroorganismen and Zellkulturen (DSMZ, Braunschweig, Germany). Human cervical adenocarcinoma HeLa cells were cultured in DMEM supplemented with 10% fetal bovine serum (FBS). Human mammary carcinoma MCF-7 cells were cultured in RPMI supplemented with 10% FBS. The U87 cells (ATCC HTB-14) were cultured in DMEM culture medium, while the A549 cells (DSMZ ACC107) were cultured in RPMI culture medium supplemented with 10% heat-inactivated FBS. The glioblastoma multiforme Hs683 (ATCC HTB-138) and the T98G (ATCC CRL-1690) cell lines were cultivated in DMEM supplemented with 10% FBS. The Human uterine sarcoma MES-SA and MES-SA/Dx5 cells were cultured in RPMI-1640 medium supplemented with 10% FBS with MES SA/Dx5 maintained in the presence of 500 nM Doxorubicin (Sigma). SKMEL-28 cells (ATCC HTB72) and U373 glioblastoma cells (ECACC 08061901) were cultured in RPMI culture medium supplemented with 10% heat-inactivated FBS. Cell culture media were supplemented with 4 mM glutamine (Lonza code BE17-605E), 100 μg/mL gentamicin (Lonza code 17-5182), and penicillin-streptomycin (200 units/ml and 200 μg/ml) (Lonza code 17-602E). Neurosphere culture GBM 031810 was established using known methods and maintained in Neurobasal medium (Invitrogen Carlsbad, Calif.) with B27 supplement (20 ul/ml; Invitrogen), Glutamax (10 ul/ml; Invitrogen), fibroblast growth factor-2 (20 ng/ml; Peprotech, Rocky Hill, N.J., USA), epidermal growth factor (20 ng/ml; Peprotech), heparin (32 IE/ml; Sigma Aldrich, St. Louis, Mo.), and penicillin-streptomycin (1×, Invitrogen). Growth factors and heparin were renewed twice weekly. All cell lines were cultured in T25 flasks, maintained and grown at 37° C., 95% humidity, 5% CO2.
(§3) Antiproliferative properties of the synthesized compounds were evaluated by the MTT assay. All compounds were dissolved in DMSO at a concentration of either 100 mM or 50 mM prior to cell treatment. The cells were trypsinized and seeded at 4×10^3 cells per well into 96-well plates. The cells were grown for 24 h, treated with compounds at concentrations ranging from 0.001 to 100 μM and incubated for 48 h in 200 μL media. 20 μL of MTT reagent in serum free medium (5 mg/mL) was added to each well and incubated further for 2 h. Media was removed and the resulting formazan crystals were re-solubilized in 200 μL of DMSO. A490 was measured using a Molecular Devices Thermomax plate reader. The experiments were performed in quadruplicate and repeated at least twice for each compound per cell line. Cells treated with 0.1% DMSO were used as a negative control; 1 μM phenyl arsine oxide (PAO) was used as a positive control.

In assay [2] the test system is MES-SA/Dx5 MDR uterine sarcoma cells. The experiment in a line: MTT antiproliferative assay, MDR MES-SA/Dx5. The class given is cell-based, human. Conditions: for GI50: Homo sapiens, MES-SA/Dx5, 48 h treatment, MTT, ± SD, MDR line, read-out: GI50 in vitro, MES-SA/Dx5. As to the method:
(§4) Compared with the intrinsic drug resistance, as described above for such cancers as glioblastoma and melanoma, a large variety of tumors can also develop resistance to anticancer drugs resulting in MDR as explained previously. To assess whether the hydroxamates can overcome this resistance mechanism, selected hydroxamates were tested against MDR cells (Table 4). The MDR uterine sarcoma cell line MES-SA/Dx5 was utilized for this experiment. This cell line was established from the parent uterine sarcoma MES-SA, grown in the presence of increasing concentrations of doxorubicin and known to be resistant to a number of P-gp substrates.
as §2, §3
Selection of the MES-SA/Dx5 cell line was done according to W. G. Harker and B. I. Sikic, Cancer Res. 1985, p. 45, 4091. The cells were split and allowed to adhere overnight. […] The cells were maintained at this DOX concentration until their growth rate reached that of the untreated cells.

The subject of assay [3] is HeLa cervical adenocarcinoma cells. Description: MTT antiproliferative assay, HeLa. The class given is cell-based. The conditions noted are these: Homo sapiens, Table 2, 48 h treatment, ± SD, read-out: cell viability GI50, HeLa.
Text: (§5) This finding led to an exploration of the SAR analyses by synthesizing the first generation compounds 3 containing diverse substituents at different positions in the 2-aryl-2-(3-indolyl)acetohydroxamate skeleton and testing this series for in vitro growth inhibition using the MTT colorimetric assay against two cell lines, human HeLa cervical and MCF-7 breast adenocarcinomas (Table 1). It emerged from these experiments that the substitution on the benzene ring of the indole moiety (R^2≠H) was not tolerated (e.g., 3abfa and 3acfa), whereas the nitrogen could be derivatized (R^1≠H) with only a small activity drop (e.g., 3bafa vs 3aafa).
as §2, §3
A general note: Tetrazolium dyes change colour on reduction, which living cells bring about.

In assay [4] the test system is GBM 031810 neurosphere cells. Description: Antiproliferative effect on patient-derived GBM neurosphere culture. It counts as cell-based. The conditions noted are these: Homo sapiens, average IC50 ± SD from three determinations, read-out: GI50 in vitro, GBM 031810 (average IC50).
Text: Given the ability of the hydroxamates to overcome drug resistance a few select compounds were further evaluated against glioma cells grown in neurosphere conditions, which are known to promote the growth of stem-like cells from human glioma tissue. Indeed, the neurospheres show the ability of self-renewal by regrowing in culture from individual cells, and can differentiate into multiple neural lineages and recapitulate human gliomas on both histological and genetic levels more faithfully than serum cultured glioma cell lines when injected into the brains of mice. Because, neurosphere cells are generally resistant to radiation and chemotherapy, the micromolar to submicromolar activity of the hydroxamates against the glioma neurosphere cell cultures is noteworthy (Table 4). […] It is worthy of note, that the unmethylated MGMT promoter leading to such temozolomide resistance is found in about half of all GBM patients, who respond poorly to temozolomide chemotherapy. To date, no alternative treatment exists for this group of patients.
as §2, with “Growth factors and heparin were renewed twice weekly. All cell lines were cultured in T25 flasks, maintained and grown at 37° C., 95% humidity, 5% CO2.” left out

The test system of assay [5] is A549 non-small-cell-lung cancer cells. Description: MTT antiproliferative assay, A549. The class given is cell-based, human. The conditions noted are these: for GI50: Homo sapiens, A549, 48 h treatment, MTT, ± SD, read-out: GI50 in vitro, A549. As to the method: as §1, §2, §3
In assay [6] the test system is T98G glioblastoma cells. The experiment in a line: MTT antiproliferative assay, T98G. The class given is cell-based. The conditions noted are these: Homo sapiens, 48 h treatment, ± SD, read-out: GI50 in vitro, T98G. The method, then: as §1, §2, §3
Assay [7] relates to MCF-7 breast adenocarcinoma cells. The experiment in a line: MTT antiproliferative assay, MCF-7. It counts as cell-based. The conditions noted are these: Homo sapiens, MCF7, Table 2, 48 h treatment, ± SD, read-out: cell viability GI50, MCF7.
Text: as §5, §2, §3

Assay [8] deals with HeLa cervical and MCF-7 breast adenocarcinomas. The experiment in a line: In vitro growth inhibition (MTT). It counts as cell-based, human. The conditions noted are these: HeLa and MCF-7.
Text: as §5, §3

Assay [9] concerns MES-SA uterine sarcoma cells. The experiment in a line: MTT antiproliferative assay, MES-SA. The class given is cell-based. The conditions noted are these: Homo sapiens, 48 h treatment, ± SD, read-out: GI50 in vitro, MES-SA. The method, then: as §4, with “substrates. […] In contrast, there was only a small variation in the sensitivities of the two cell lines towards the hydroxamates indicating their potential to overcome clinical multi-drug resistance.” for “substrates.”
as §2, §3

Assay [10] deals with U87 glioblastoma cells. Description: MTT antiproliferative assay, U87. It counts as cell-based, human. The conditions noted are these: for GI50: Homo sapiens, 48 h treatment, MTT, ± SD, read-out: GI50 in vitro, U87. The method, then:
as §1, §2, §3

The mark [11] stands for this setting: FIG. 3, increasing concentration.

For orientation: IC50 means the midpoint of a concentration-inhibition curve. In the case of `CC(C)c1ccc(C(C(=O)NO)c2c(-c3ccc4ccccc4c3)[nH]c3ccccc23)cc1` (centres unmarked) [Compound 3aafe], the GI50 worked out at 6.1 ± 1 µM in assay [1]; 4.9 ± 1.9 µM in assay [2]; 0.68 ± 0.04 µM in assay [3]; 3.3 ± 0.6 µM in assay [5]; 8.8 ± 0.5 µM in assay [6]; 1.4 ± 0.1 µM in assay [7]. The GI50 in assay [9] came to 1.7 ± 0.4 µM; in assay [10], 5 ± 0.5 µM. Further, the 50% inhibitory concentration (IC50) in assay [4] came out at 3.4 ± 0.7 µM. Moreover, the “antiproliferative potency (GI50)” value in assay [8] is “single-digit micromolar; also recorded: submicromolar”.

As to `Cc1ccc(C(C(=O)NO)c2c(-c3ccc4ccccc4c3)[nH]c3ccccc23)cc1C` (centres unmarked) [Compound 3aafk], the GI50 in assay [1] came out at 4.7 ± 1 µM; in assay [2] it was 2.2 ± 0.8 µM; in assay [3], 2.7 ± 0.1 µM; in assay [5] it was 2.9 ± 0.6 µM; in assay [6], 7.5 ± 0.8 µM; in assay [7], 2.5 ± 0.1 µM. The GI50 in assay [9] is 1.8 ± 0.4 µM; in [10], 6.7 ± 1.5 µM. The “antiproliferative potency (GI50)” value in assay [8] was “single-digit micromolar”.

For the molecule `CN(C)c1ccc(C(C(=O)NO)c2c(-c3ccc4ccccc4c3)[nH]c3ccccc23)cc1` (centres unmarked) [Compound 3aafp], the GI50 in assay [1] was found to be 5.1 ± 0.5 µM; in [2] it was 1.6 ± 0.6 µM; in assay [3], 0.6 ± 0.02 µM; in assay [5], 1.5 ± 0.3 µM; in assay [6] it was 1.9 ± 0.2 µM; in assay [7] it was 1.1 µM. The values for the GI50 in assay [9] and in [10] were 0.8 ± 0.1 µM and 21.3 ± 1.6 µM, respectively. Besides, the IC50 in [4] came to 5.6 ± 0.8 µM. Besides, the “activity against cell populations resistant to proapoptotic agents, A549” value in [5] (setting [11]) is “potent growth inhibitory properties against most of the cells”. For the same molecule, the “antiproliferative potency (GI50)” value in assay [8] is “single-digit micromolar; also recorded: submicromolar”. In addition, the “activity against cell populations resistant to proapoptotic agents, U87” value in assay [10] (setting [11]) is recorded as “potent growth inhibitory properties against most of the cells”.

For `CCCCn1c(-c2ccc3ccccc3c2)c(C(C(=O)NO)c2ccccc2)c2ccccc21` (centres unmarked) [Compound 3cafa], the GI50 in assay [1] came to 10.8 ± 0.5 µM; in [2] it was 2.7 ± 0.3 µM; in assay [3] it was 5.6 ± 0.3 µM; in assay [5], 5.7 ± 0.5 µM; in assay [6] it was 12.3 ± 0.8 µM; in assay [7] it was 7.8 ± 0.6 µM. In addition, the results for the GI50 in assay [9] and in assay [10] were 5.9 ± 1.7 µM and 6.7 ± 0.3 µM, respectively. In addition, in assay [8], the “antiproliferative potency (GI50)” value is listed as “single-digit micromolar”.

Regarding `O=C(NO)C(c1ccccc1)c1c(-c2ccc3ccccc3c2)n(Cc2ccccc2)c2ccccc12` (centres unmarked) [Compound 3eafa], the GI50 in assay [1] is 11.2 ± 0.9 µM; in assay [2], 8.5 ± 0.9 µM; in [3], 5.4 ± 0.3 µM; in assay [5], 5.8 ± 0.8 µM; in [6], 10.6 ± 0.4 µM; in [7], 5.5 ± 0.2 µM. Besides, the GI50 in assay [9] came to 7.1 ± 0.1 µM; in [10] it was 9.1 ± 0.3 µM. In addition, in assay [8], the “antiproliferative potency (GI50)” value is listed as “single-digit micromolar”.

Turning to `Cn1nnc2c(C(N)=O)ncn2c1=O` [Temozolomide, reference compound], the IC50 in assay [4] is above 1000 µM.

As to `CC[C@]1(O)C[C@@H]2CN(CCc3c([nH]c4ccccc34)[C@@](C(=O)OC)(c3cc4c(cc3OC)N(C)[C@H]3[C@@](O)(C(=O)OC)[C@H](OC(C)=O)[C@]5(CC)C=CCN6CC[C@]43[C@@H]65)C2)C1` [Vinblastine, reference compound], the GI50 is 5 ± 1.4 µM in assay [2] and 0.006 ± 0.001 µM in assay [9]. For the same molecule, in assay [2] (MDR line compared with parent line), the “change in potency, MDR MES-SA/Dx5 versus parent MES-SA” value is on record as “more than a thousand fold drop in potency”.
